{"source": "patent US5679680A", "about": "“α-substituted hydrazides having calpain inhibitory activity” (Warner-Lambert Company, priority 1995, dated 1997)", "key": {"[1]": {"system": "Purkinje cells in cerebellar slices", "test": "AMPA toxicity to Purkinje cells in cerebellar slices", "type": "cell-based, rat", "settings": "100 μM compound", "procedure": "(ii) Neuroprotective effects of the compound of Example 5 against AMPA toxicity to Purkinje cells in cerebellar Slices: Cerebellar slices were acutely isolated from adult rats and maintained in an oxygenated bath for the duration of the experiment as described elsewhere (Caner, et al., Brain Research 1993;607: 354-356). Example 5 (100 μM) was added to the ACSF (124 mM NaCl, 3.3 mM KCl, 2 mM CaCl2, 25.7 mM NaHCO3, 2.4 mM MgSO4, 1.25 mM KH2 PO4, 10 mM glucose) 60 minutes before the addition of amino-3-hydroxy-5-methyl-4-isoxazole propionic acid (AMPA; 30 μM for 30 minutes). The slices were then allowed to recover in normal ACSF for an additional 90 minutes. Histological damage to Purkinje cells was identified and quantified as described in detail elsewhere (Caner, et al., Brain Research 1993;607: 354-356)."}, "[2]": {"system": "Spectrin Breakdown in Human Leukemic Molt-4 cells", "test": "Cell-based calpain assay: spectrin breakdown in Molt-4 cells treated with calcium ionophore A23187", "settings": "1 hour preincubation, 15 μM A23187, 90 minutes, read-out: IC50 for inhibition of spectrin breakdown (145 kD fragment formation)", "procedure": "Calpain inhibitor was added to the wells if desired and preincubated for 1 hour. […] The cells were then lysed with 2% (w/v) SDS, 5 mM EGTA, 5 mM EDTA, 150 mM NaCl, 0.5 mM PMSF, 10 μg/mL AEBSF, 5 μg/mL leupeptin, 10 μg/mL pepstatin, 10 μg/mL TLCK, 10 μg/mL TPCK, and 20 mM Tris-HCl (pH 7.4) at room temperature for 5 to 10 minutes. One hundred microliters of 100% (w/v) TCA was added and total protein precipitate was collected by microcentrifugation. The final pellets were neutralized with Tris base. Protein samples (50 μg) were run on SDS-PAGE with the Tris-glycine running buffer system and transferred onto a PVDF membrane. The blots were probed with an anti-spectrin (nonerythroid) antibody and a second antibody with alkaline phosphatase conjugate. The blots were developed with nitro blue tetrazolium and 5-bromo-4-chloro-3-indolyl-phosphate."}, "Human Calpain I": {"molecular_target": "T1, Human Calpain I (Homo sapiens, UniProt P07384)", "T1 construct": "Calpain I was purified from human erythrocytes; from tissue; host or cells: human erythrocytes", "T1 sequence (P07384 1-714)": "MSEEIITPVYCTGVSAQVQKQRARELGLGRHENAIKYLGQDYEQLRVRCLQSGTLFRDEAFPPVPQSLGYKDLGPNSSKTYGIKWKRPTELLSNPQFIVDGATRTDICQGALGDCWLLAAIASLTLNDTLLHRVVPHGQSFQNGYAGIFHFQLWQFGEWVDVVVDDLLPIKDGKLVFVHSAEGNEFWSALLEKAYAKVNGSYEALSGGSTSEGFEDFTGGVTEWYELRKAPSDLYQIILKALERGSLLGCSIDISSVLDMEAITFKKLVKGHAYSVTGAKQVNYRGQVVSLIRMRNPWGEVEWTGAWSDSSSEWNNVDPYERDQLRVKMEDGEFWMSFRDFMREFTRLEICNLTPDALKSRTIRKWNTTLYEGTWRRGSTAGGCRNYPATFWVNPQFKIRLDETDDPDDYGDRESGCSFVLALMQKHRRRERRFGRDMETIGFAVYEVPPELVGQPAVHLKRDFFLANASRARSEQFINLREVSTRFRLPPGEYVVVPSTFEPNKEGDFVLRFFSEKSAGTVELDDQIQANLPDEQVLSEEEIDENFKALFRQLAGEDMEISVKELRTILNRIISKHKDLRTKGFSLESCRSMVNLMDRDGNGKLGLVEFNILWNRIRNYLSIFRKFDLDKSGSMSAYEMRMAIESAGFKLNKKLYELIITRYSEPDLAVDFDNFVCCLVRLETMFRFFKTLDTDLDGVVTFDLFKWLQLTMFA", "T1 sequence (P04632 1-268 partner)": "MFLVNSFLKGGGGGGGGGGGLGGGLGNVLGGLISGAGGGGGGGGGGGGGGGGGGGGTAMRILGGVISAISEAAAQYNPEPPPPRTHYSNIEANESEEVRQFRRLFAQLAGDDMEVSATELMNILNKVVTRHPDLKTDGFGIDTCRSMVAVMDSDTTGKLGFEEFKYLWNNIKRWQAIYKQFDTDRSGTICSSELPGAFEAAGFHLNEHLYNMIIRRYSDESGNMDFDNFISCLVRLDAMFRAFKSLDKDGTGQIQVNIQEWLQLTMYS", "test": "Calpain I activity, casein substrate, Coomassie microplate assay", "type": "biochemical", "procedure": "Assay of calpain activity: Calpain I was purified from human erythrocytes as described by Wang K K W, Roufogalis B D, and Villalobo A, Arch Biochem Biophys 1988;267: 317-327. Calpain activity was assayed in a 96-well microplate format (Buroker-Kilgore M and Wang K K W, Anal Bio Chem 1993;208: 387-392). In 250 μL of reaction mixture, substrate casein (0.5 mg/mL) was incubated with 0.01 unit (80-120 ng) calpain I, 20 mM dithiothreitol (DTT), 50 mM Tris-HCl (pH 7.4 at 25° C.) and 4 mM CaCl2 at 25° C. for 60 minutes. Two 100-μL aliquots were taken for Coomassie blue G250 binding analysis to quantify the remaining casein.\nCompound concentrations that cause 50% inhibition (IC50) are as shown (Table I). The second rate of inactivation of calpain I for 2 compounds are also shown.\nSelectivity of α-substituted Hydrazides: Calpain I and II were assayed as described in Example 1. One to 2 ng papain (papaya latex, Sigma, P3125), 1.25 μg trypsin (bovine pancreas, Sigma, T8003), 5 μg thermolysin (Bacillus thermoproteolyticus, Sigma, P1512) were assayed using 0.5 mg/mL casein as substrate in the microplate format (250 μL reaction volume), essentially a described by Buroker-Kilgore, M. and Wang K K W, Anal Biochem 1993;208: 387-392. Cathepsin B (0.002 unit, bovine spleen) was assayed with 50 mM MES (pH 5.5), 100 μM carbobenzoxy-Arg-Arg-4-methoxy-beta-naphthlamide (Cbz-Arg-Arg-MNA), inhibitor, and 2 mM DTT in 200 μL for 60 minutes at room temperature. Fifty-microliter aliquots were transferred to a fluorescence-compatible plate and then read with a Perkin-Elmer fluorometer LS-50B (excitation 340 nm and emission 425 nm). Calcineurin (bovine brain, Sigma) (5 μg, 0.8 unit) was assayed with 10 mM p-nitrophenyl phosphate in 1 mM DTT, 1 mM CaCl2, 1 mM MnCl2, […] calmodulin (CaM, if added), and 50 mM Tris-HCl (pH 7.4) at 25° C. for 60 minutes or more. Production of p-nitrophenol was monitored at 405 nm. Inhibition of these proteases are presented as IC50."}}, "data": [{"smiles": "O=C(CCl)NN=c1[nH]c2ccccc2n(-c2ccccc2)c1=O", "note": "[Example 5, 2-Chloro-acetic acid (3-oxo-4-phenyl-3,4-dihydro-1H-quinoxalin-2-ylidene)-hydrazide]", "values": [{"measurement": "AMPA-induced neurotoxicity", "setting": "[1]; AMPA 30 μM", "value": "can be ameliorated"}, {"measurement": "viability at 100 µM", "setting": "[1]; Rattus norvegicus, purkinje, 0.5 h, AMPA 30 μM for 30 minutes, mean ± SEM (10), p < 0.005 vs AMPA alone (13.41 ± 2.34), Control 94.41 ± 0.97, read-out: % Live Purkinje Neurons", "value": "51 ± 4.8", "unit": "%"}, {"measurement": "IC50", "setting": "[2]", "value": 25, "unit": "µM"}, {"measurement": "Ki/[I] Calpain I (second rate of inactivation)", "setting": "Human Calpain I", "value": 109, "unit": "M⁻¹ s⁻¹"}, {"measurement": "IC50", "setting": "Human Calpain I; casein 0.5 mg/mL, pH 7.4, 25° C., 60 minutes (Table I)", "value": 0.364, "unit": "µM"}]}]}
